The target of one experiment is USP1-UAF1 (Homo sapiens, UniProt O94782). The experiment is described as follows: Ubiquitin Rhodamine assay for USP1-UAF1 activity. The class given is biochemical. As to the method: Certain compounds of the disclosure were assessed for USP1-UAF1 activity in a Ubiquitin Rhodamine assay as described in Example 135.
Experiment [1] has as its system MDA-MB-436 (BRCA1 mutant) cell line. The experiment is described as follows: Viability assay in BRCA1 mutant cell line MDA-MB-436. The class given is cell-based. As to conditions: Homo sapiens, MDA-MB-436, viability, BRCA1 mutant MDA-MB-436; read-out: MDA-MB-436 rel IC50. An excerpt:
(§1) Table 1 also indicates IC50 values in a viability assay for a non-isogenic pair of BRCA1 mutant (column 5—MDA-MB-436) and BRCA1 WT (column 6—HCC1954) cell lines. These values indicate the effect of treatment with compound on cell survival.

Experiment [2] deals with HCC1954 (BRCA1 WT) cell line. Nature of the experiment: Viability assay in BRCA1 WT cell line HCC1954. In kind it is cell-based. As to conditions: read-out: HCC 1954 IC50 rel IC50.
Excerpt: as §1

Like-named read-outs stand apart in the source and are kept apart here.

USP1-UAF1, sequence (O94782 whole entry): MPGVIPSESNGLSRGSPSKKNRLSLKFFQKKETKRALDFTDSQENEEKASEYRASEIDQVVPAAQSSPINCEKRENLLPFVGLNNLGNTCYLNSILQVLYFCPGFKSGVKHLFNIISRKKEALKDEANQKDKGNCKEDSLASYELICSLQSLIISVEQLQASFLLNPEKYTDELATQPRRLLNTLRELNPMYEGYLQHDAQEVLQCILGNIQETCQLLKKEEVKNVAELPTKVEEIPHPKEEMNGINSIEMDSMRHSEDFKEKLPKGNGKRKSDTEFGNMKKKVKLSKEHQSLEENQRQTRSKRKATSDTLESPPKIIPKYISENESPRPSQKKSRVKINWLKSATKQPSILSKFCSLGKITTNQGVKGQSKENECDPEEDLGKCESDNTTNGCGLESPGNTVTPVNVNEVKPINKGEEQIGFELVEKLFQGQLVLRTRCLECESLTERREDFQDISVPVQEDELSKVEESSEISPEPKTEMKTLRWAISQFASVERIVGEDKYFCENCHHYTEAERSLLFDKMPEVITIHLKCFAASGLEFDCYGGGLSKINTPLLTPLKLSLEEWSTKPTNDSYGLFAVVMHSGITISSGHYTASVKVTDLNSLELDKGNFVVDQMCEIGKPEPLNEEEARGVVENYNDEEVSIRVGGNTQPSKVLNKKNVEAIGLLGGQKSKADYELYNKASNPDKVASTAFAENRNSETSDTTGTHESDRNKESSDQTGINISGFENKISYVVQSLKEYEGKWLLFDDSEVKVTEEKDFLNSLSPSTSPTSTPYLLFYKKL
USP1-UAF1, sequence (Q8TAF3 whole entry partner): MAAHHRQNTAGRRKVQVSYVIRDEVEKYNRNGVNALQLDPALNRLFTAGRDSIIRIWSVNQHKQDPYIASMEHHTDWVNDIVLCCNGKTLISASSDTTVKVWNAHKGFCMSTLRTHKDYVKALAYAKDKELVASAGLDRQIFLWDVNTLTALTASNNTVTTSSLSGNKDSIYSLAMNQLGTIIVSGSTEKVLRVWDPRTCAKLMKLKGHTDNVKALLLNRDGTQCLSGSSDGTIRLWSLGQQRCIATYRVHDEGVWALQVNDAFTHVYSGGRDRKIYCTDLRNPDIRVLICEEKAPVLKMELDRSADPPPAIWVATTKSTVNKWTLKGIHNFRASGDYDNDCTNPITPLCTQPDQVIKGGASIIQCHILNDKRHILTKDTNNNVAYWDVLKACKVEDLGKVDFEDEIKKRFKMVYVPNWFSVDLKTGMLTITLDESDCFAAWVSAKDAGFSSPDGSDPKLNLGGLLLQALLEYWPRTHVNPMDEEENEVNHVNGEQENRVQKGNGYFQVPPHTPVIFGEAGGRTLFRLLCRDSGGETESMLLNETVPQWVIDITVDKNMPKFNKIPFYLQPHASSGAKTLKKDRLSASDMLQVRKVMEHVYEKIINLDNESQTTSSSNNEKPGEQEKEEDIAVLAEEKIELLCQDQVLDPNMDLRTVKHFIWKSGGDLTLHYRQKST

Usually IC50 stands for the midpoint of a concentration-inhibition curve. As to `CN(Cc1ccccc1-c1ncc2[nH]cc(C(O)c3ccc(-c4nc(C(F)(F)F)cn4C)cc3)c2n1)CC(F)(F)F` (centres unmarked) [Compound 42], the IC50 on USP1-UAF1 was 0.1 to 10 µM; in experiment [1], 0.25 to 10 µM; in experiment [2] (Homo sapiens) it was at least 10 µM.
On USP1-UAF1, `Cn1cc(C(F)(F)F)nc1-c1ccc(Cc2n[nH]c3cnc(-c4c(OCF)ncnc4C4CC4)nc23)cc1` [Compound 169] registered an IC50 of under 0.03 µM.
With `CN(c1ccc(-c2nc(C(F)(F)F)cn2C)cc1)c1c[nH]c2cnc(-c3ccccc3C3CC3)nc12` [Compound 13, 2-(2-cyclopropylphenyl)-N-methyl-N-[4-[1-methyl-4-(trifluoromethyl)imidazol-2-yl]phenyl]-5H-pyrrolo[3,2-d]pyrimidin-7-amine], the values for the IC50 (against USP1-UAF1; in experiment [1]; in experiment [2] (Homo sapiens)) were 0.1 to 10 µM, 0.25 to 10 µM and at least 10 µM, respectively.
For `Cn1cc(C(F)(F)F)nc1-c1ccc(Cc2c[nH]c3cnc(-c4cccnc4N4CCC45COC5)nc23)cc1` [Compound 77], in that order: 0.1 to 10 µM, 0.25 to 10 µM and at least 10 µM.
Turning to `Cn1cc(C(F)(F)F)nc1-c1ccc(C(C)(O)c2c[nH]c3cnc(-c4cccnc4OCC(F)(F)F)nc23)cc1` (single isomer, unassigned) [Compound 22], the half-maximal inhibitory concentration (IC50) fell in the range of 0.1 to 10 µM against USP1-UAF1, 0.1 to 0.25 µM in experiment [1] and 0.25 to 10 µM in experiment [2] (Homo sapiens).
For the molecule `CNc1ncccc1-c1ncc2[nH]cc(Cc3ccc(-c4nc(C(F)(F)F)cn4C)cc3)c2n1` [Compound 58, N-methyl-3-[7-[[4-[1-methyl-4-(trifluoromethyl)imidazol-2-yl]phenyl]methyl]-5H-pyrrolo[3,2-d]pyrimidin-2-yl]pyridin-2-amine], the IC50 against USP1-UAF1 lay within 0.1 to 10 µM; in experiment [1] it was 0.25 to 10 µM; in experiment [2] (Homo sapiens) it was 0.25 to 10 µM.
Regarding `CC(C)c1ccccc1-c1ncc2[nH]cc(CN3CCN(c4nc(C(F)(F)F)cn4C)CC3)c2n1` [Compound 35, 2-(2-isopropylphenyl)-7-[[4-[1-methyl-4-(trifluoromethyl)imidazol-2-yl]piperazin-1-yl]methyl]-5H-pyrrolo[3,2-d]pyrimidine], the concentration for half-maximal inhibition (IC50) against USP1-UAF1 is 0.1 to 10 µM; in experiment [1] it was 0.25 to 10 µM; in experiment [2] (Homo sapiens), 0.25 to 10 µM.
With `COc1ncnc(C2CC2)c1-c1ncc2[nH]cc(C(O)c3ccc(-c4nc(C(F)(F)F)cn4C(C)C)cc3)c2n1` (centres unmarked) [Compound 59, [2-(4-cyclopropyl-6-methoxy-pyrimidin-5-yl)-5H-pyrrolo[3,2-d]pyrimidin-7-yl]-[4-[1-isopropyl-4-(trifluoromethyl)imidazol-2-yl]phenyl]methanol], the IC50 at USP1-UAF1 was 0.1 to 10 µM; in experiment [1], 0.25 to 10 µM; in experiment [2] (Homo sapiens), 0.25 to 10 µM.
As to `CN(C)Cc1ccccc1-c1ncc2[nH]cc(C(O)c3ccc(-c4nc(C(F)(F)F)cn4C)cc3)c2n1` (centres unmarked) [Compound 3], the IC50 (at USP1-UAF1; in experiment [1]; in experiment [2] (Homo sapiens)) was at least 10 µM in each case.
On to `CCn1c(C(F)(F)F)cnc1-c1ccc(C(O)c2c[nH]c3cnc(-c4c(OC)ncnc4C4CC4)nc23)cc1` (centres unmarked) [Compound 75], for which the IC50 (on USP1-UAF1; in experiment [1]; in experiment [2] (Homo sapiens)) was at least 10 µM throughout.
As for `Cn1cc(C(F)(F)F)nc1-c1ccc(Cc2c[nH]c3cnc(-c4cccnc4N4CCC45CCOC5)nc23)cc1` (centres unmarked) [Compound 32], the 50% inhibitory concentration (IC50) against USP1-UAF1 fell in the range of 0.1 to 10 µM; in experiment [1], 0.25 to 10 µM; in experiment [2] (Homo sapiens) it was 0.25 to 10 µM.
Consider `CN1CC(n2cc(C(F)(F)F)nc2-c2ccc(C(O)c3c[nH]c4cnc(-c5cccnc5OC(F)F)nc34)cc2)C1` (centres unmarked) [Compound 38, [2-[2-(difluoromethoxy)-3-pyridyl]-5H-pyrrolo[3,2-d]pyrimidin-7-yl]-[4-[1-(1-methylazetidin-3-yl)-4-(trifluoromethyl)imidazol-2-yl]phenyl]methanol], for which the IC50 (on USP1-UAF1; in experiment [1]; in experiment [2] (Homo sapiens)) was at least 10 µM in each case.
Regarding `COc1ncnc(C(C)(C)C)c1-c1ncc2[nH]nc(Cc3ccc(-c4nc(C(F)(F)F)cn4C)cc3)c2n1` [Compound 158], the concentration for half-maximal inhibition (IC50) on USP1-UAF1 is under 0.03 µM.
For `Cn1cc(C(F)(F)F)nc1-c1ccc(S(=O)(=O)c2c[nH]c3cnc(-c4ccccc4C(F)(F)F)nc23)cc1` [Compound 46, 7-[4-[1-methyl-4-(trifluoromethyl)imidazol-2-yl]phenyl]sulfonyl-2-[2-(trifluoromethyl)phenyl]-5H-pyrrolo[3,2-d]pyrimidine], the IC50 at USP1-UAF1 fell in the range of 0.1 to 10 µM.
Consider `Cn1cc(C(F)(F)F)nc1-c1ccc(Cc2c[nH]c3cnc(-c4cccnc4O)nc23)cc1` [Compound 56, 3-[7-([4-[1-methyl-4-(trifluoromethyl)imidazol-2-yl]phenyl]methyl)-5H-pyrrolo[3,2-d]pyrimidin-2-yl]pyridin-2-ol], for which the concentration for half-maximal inhibition (IC50) (against USP1-UAF1; in experiment [1]; in experiment [2] (Homo sapiens)) was at least 10 µM each time.
Consider `COc1ncnc(C2CC2)c1-c1ncc2[nH]cc(C(C)c3ccc(-c4nc(C(F)(F)F)cn4C)cc3)c2n1` (centres unmarked) [Compound 128], for which the results for the IC50 (at USP1-UAF1; in experiment [1]; in experiment [2] (Homo sapiens)) were under 0.03 µM, under 0.1 µM and at least 10 µM, respectively.
`COCCc1[nH]c2cnc(-c3c(OC)ncnc3C3CC3)nc2c1C(O)c1ccc(-c2nc(C(F)(F)F)cn2C)cc1` (centres unmarked) [Compound 109, [2-(4-cyclopropyl-6-methoxy-pyrimidin-5-yl)-6-(2-methoxyethyl)-5H-pyrrolo[3,2-d]pyrimidin-7-yl]-[4-[1-methyl-4-(trifluoromethyl)imidazol-2-yl]phenyl]methanol]: the concentration for half-maximal inhibition (IC50) at USP1-UAF1 is 0.1 to 10 µM; in experiment [1], 0.25 to 10 µM; in experiment [2] (Homo sapiens) it was at least 10 µM.
Take `Cn1cc(C(F)(F)F)nc1-c1ccc(C(=O)c2c[nH]c3cnc(-c4cccnc4C4CC4)cc23)cc1` [Compound 53]: the IC50 (on USP1-UAF1; in experiment [1]; in experiment [2] (Homo sapiens)) was at least 10 µM throughout.
In turn, `CO[C@H](c1ccc(-c2nc(C(F)(F)F)cn2C)cc1)c1c[nH]c2cnc(-c3c(OC(F)F)ncnc3C3CC3)nc12` (single isomer, unassigned) [Compound 149] registered a half-inhibitory concentration (IC50) at USP1-UAF1 of under 0.03 µM.
As for `COc1ncnc(C2CC2)c1-c1ncc2[nH]cc([C@H](c3ccc(-c4nc(C(F)(F)F)cn4C)cc3)C(C)C)c2n1` (single isomer, unassigned) [Compound 208], the IC50 on USP1-UAF1 lay within 0.1 to 10 µM; in experiment [1] it was 0.25 to 10 µM; in experiment [2] (Homo sapiens) it was 0.25 to 10 µM.
On USP1-UAF1, `COc1ncnc(C2CC2)c1-c1ncc2[nH]cc(C(O)c3ccc(-c4nc(C#N)cn4C)cc3)c2n1` (centres unmarked) [Compound 37, 2-[4-[[2-(4-cyclopropyl-6-methoxy-pyrimidin-5-yl)-5H-pyrrolo[3,2-d]pyrimidin-7-yl]-hydroxy-methyl]phenyl]-1-methyl-imidazole-4-carbonitrile] registered an IC50 of at least 10 µM.
Molecule `COc1ncnc(C2CC2)c1-c1ncc2c(n1)c(Cc1ccc(-c3nc(C(F)(F)F)cn3C)cc1)cn2C1CC1` [Compound 170, 5-cyclopropyl-2-(4-cyclopropyl-6-methoxy-pyrimidin-5-yl)-7-[[4-[1-methyl-4-(trifluoromethyl)imidazol-2-yl]phenyl]methyl]pyrrolo[3,2-d]pyrimidine] had an IC50 at USP1-UAF1 of under 0.03 µM.
Consider `COc1ncnc(C2CC2)c1-c1ncc2[nH]cc(C(O)c3ccc(-c4nc(C(F)(F)F)cn4C4CC4)cc3)c2n1` (centres unmarked) [Compound 19, [2-(4-cyclopropyl-6-methoxy-pyrimidin-5-yl)-5H-pyrrolo[3,2-d]pyrimidin-7-yl]-[4-[1-cyclopropyl-4-(trifluoromethyl)imidazol-2-yl]phenyl]methanol], for which the IC50 against USP1-UAF1 was 0.1 to 10 µM.
Take `CO[C@@H](c1ccc(-c2nc(C(F)(F)F)cn2C)cc1)c1c[nH]c2cnc(-c3c(OC(F)F)ncnc3C3CC3)nc12` (single isomer, unassigned) [Compound 127]: the IC50 against USP1-UAF1 lay within 0.1 to 10 µM.
Still for that read-out and setting: the same measure for `CCn1c(C(F)(F)F)cnc1-c1ccc(Cc2c[nH]c3cnc(-c4c(OC)ncnc4C4CC4)nc23)cc1` [Compound 70]: 0.1 to 10 µM; for `Cn1cc(C(F)(F)F)nc1-c1ccc(Cc2c[nH]c3cnc(-c4cccnc4N4CC(F)C4)nc23)cc1` [Compound 68]: 0.1 to 10 µM.
`COc1ncnc(C(C)C)c1-c1ncc2[nH]nc(Cc3ccc(-c4nc(C(F)(F)F)cn4C)cc3)c2n1` [Compound 112]: the IC50 at USP1-UAF1 is under 0.03 µM.
At USP1-UAF1, `Cn1cc(C(F)(F)F)nc1-c1ccc(Cc2c[nH]c3cnc(-c4ccccc4C(C)(C)O)nc23)cc1` [Compound 157, 2-(2-(7-(4-(1-methyl-4-(trifluoromethyl)-1H-imidazol-2-yl)benzyl)-5H-pyrrolo[3,2-d]pyrimidin-2-yl)phenyl)propan-2-ol] returned a concentration for half-maximal inhibition (IC50) of under 0.03 µM.
In the case of `Cn1cc(C(F)(F)F)nc1-c1ccc([S+]([O-])c2c[nH]c3cnc(-c4ccccc4C(F)(F)F)nc23)cc1` (centres unmarked) [Compound 36, 7-[4-[1-methyl-4-(trifluoromethyl)imidazol-2-yl]phenyl]sulfinyl-2-[2-(trifluoromethyl)phenyl]-5H-pyrrolo[3,2-d]pyrimidine], at USP1-UAF1, the half-inhibitory concentration (IC50) lay within 0.1 to 10 µM.
On to `COc1ncnc(C2CC2)c1-c1ncc2[nH]cc(C(C)c3ccc(-c4nc(C(F)(F)F)cn4C)cc3)c2n1` (single isomer, unassigned) [Compound 192], for which the half-maximal inhibitory concentration (IC50) in experiment [2] lay within 0.25 to 10 µM.
On to `COc1ncnc(C2CC2)c1-c1ncc2[nH]nc(Cc3ccc(-c4nc(C(F)(F)F)cn4C(C)C)cc3)c2n1` [Compound 16, 5-(4-cyclopropyl-6-methoxy-pyrimidin-5-yl)-3-[[4-[1-isopropyl-4-(trifluoromethyl)imidazol-2-yl]phenyl]methyl]-1H-pyrazolo[4,3-d]pyrimidine], for which the results for the 50% inhibitory concentration (IC50) in experiment [1] and in experiment [2] (Homo sapiens) were under 0.1 µM and at least 10 µM, respectively.
With `COc1ncnc(C2CC2)c1-c1nc(CN)c2[nH]cc(Cc3ccc(-c4nc(C(F)(F)F)cn4C)cc3)c2n1` [Compound 201], at USP1-UAF1, the IC50 lay in the range of 0.1 to 10 µM.

These data come from patent publication US20240182481A1 (Tango Therapeutics, Inc., priority 2021, published 2024).
